Laboratory results from paper PMC11790914, “Chemogenomics for steroid hormone receptors (NR3)” (Communications Chemistry, 2025).
Several values for one entry are separate records, joined by “and”; a condition that tells them apart may be missing. Equal values may be shown once. Read-outs that look alike come from different tables or passages of the source.

How the values were obtained:
HEK293T cells [1] = test: Cytotoxicity: necrosis induction (red fluorescent dye for permeable plasma membranes); assay type: cell-based; settings: 1 µM, 24 h, necrotic cell count normalized to 0.1% DMSO, single replicates;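 note: compounds applied in DMEM high glucose with 0.1% FCS and 0.1% DMSO, necrotic HEK293T cells counted by red staining of cells whose plasma membranes had become permeable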
ABL1 = target: T1, ABL1 (Homo sapiens, UniProt P00519); test: Liability panel screening by DSF: ABL1; assay type: binding; settings: read-out: Mean ΔTM ABL1
T1 construct: made in house
T1 sequence (P00519 whole entry, species assumed): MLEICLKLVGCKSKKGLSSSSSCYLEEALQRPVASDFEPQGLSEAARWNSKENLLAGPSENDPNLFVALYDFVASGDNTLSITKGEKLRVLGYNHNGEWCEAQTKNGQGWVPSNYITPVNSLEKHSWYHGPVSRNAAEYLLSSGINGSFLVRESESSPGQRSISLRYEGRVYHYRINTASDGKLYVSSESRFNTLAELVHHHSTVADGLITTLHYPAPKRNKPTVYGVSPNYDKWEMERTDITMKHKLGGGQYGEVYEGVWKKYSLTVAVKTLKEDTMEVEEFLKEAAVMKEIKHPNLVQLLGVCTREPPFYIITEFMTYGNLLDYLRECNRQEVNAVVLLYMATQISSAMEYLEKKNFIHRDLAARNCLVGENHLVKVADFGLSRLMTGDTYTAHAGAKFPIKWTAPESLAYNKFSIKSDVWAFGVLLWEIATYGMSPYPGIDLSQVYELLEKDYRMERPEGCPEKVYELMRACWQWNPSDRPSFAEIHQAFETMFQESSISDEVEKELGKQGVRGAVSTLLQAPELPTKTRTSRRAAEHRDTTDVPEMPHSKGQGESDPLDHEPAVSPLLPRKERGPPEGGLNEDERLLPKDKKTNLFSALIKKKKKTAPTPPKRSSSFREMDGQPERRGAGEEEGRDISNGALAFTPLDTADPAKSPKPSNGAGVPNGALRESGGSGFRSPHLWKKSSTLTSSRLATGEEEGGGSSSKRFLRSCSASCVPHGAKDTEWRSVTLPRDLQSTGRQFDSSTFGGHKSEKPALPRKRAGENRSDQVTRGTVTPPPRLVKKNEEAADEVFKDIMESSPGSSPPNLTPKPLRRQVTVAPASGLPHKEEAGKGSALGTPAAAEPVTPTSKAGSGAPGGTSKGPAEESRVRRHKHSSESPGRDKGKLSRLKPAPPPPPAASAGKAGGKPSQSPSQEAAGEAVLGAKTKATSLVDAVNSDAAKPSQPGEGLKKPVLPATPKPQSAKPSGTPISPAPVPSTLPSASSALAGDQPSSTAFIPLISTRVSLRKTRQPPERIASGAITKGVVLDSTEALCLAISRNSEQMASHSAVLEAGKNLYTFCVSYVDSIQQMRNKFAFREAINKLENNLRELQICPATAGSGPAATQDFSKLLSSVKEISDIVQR
Outline: (§1)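 Thermal shift: in-house recombinant protein at 2 µM in 10 mM HEPES pH 7.5 with 500 mM NaCl, SYPRO Orange 1:1000, heated at 3 °C/min to 85 °C in technical duplicates. Tm is the Boltzmann inflection point, reported as ∆Tm in K.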

AURKA = target: T2, AURKA (Homo sapiens, UniProt O14965); test: Liability panel screening by DSF: AURKA; assay type: binding; settings: read-out: Mean ΔTM AURKA
T2 construct: made in house
T2 sequence (O14965 1-403): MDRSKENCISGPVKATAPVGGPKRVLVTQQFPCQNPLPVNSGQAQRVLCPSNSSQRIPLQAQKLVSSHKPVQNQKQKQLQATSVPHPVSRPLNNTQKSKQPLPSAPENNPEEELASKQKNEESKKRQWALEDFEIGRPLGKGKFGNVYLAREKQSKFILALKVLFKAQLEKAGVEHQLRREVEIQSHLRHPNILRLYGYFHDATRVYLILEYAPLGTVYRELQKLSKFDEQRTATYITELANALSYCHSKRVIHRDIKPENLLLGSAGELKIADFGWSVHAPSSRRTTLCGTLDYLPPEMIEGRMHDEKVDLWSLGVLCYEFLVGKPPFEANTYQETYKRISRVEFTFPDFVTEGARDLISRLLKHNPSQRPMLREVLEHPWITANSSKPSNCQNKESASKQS
Outline: as §1

CDK2 = target: T3, CDK2 (Homo sapiens, UniProt P24941); test: Liability panel screening by DSF: CDK2; assay type: binding; settings: read-out: Mean ΔTM CDK2
T3 construct: made in house
Outline: as §1

FGFR3 = target: T4, FGFR3 (Homo sapiens, UniProt P22607); test: Liability panel screening by DSF: FGFR3; assay type: binding; settings: read-out: Mean ΔTM FGFR3
T4 construct: made in house
T4 sequence (P22607 23-806, species assumed): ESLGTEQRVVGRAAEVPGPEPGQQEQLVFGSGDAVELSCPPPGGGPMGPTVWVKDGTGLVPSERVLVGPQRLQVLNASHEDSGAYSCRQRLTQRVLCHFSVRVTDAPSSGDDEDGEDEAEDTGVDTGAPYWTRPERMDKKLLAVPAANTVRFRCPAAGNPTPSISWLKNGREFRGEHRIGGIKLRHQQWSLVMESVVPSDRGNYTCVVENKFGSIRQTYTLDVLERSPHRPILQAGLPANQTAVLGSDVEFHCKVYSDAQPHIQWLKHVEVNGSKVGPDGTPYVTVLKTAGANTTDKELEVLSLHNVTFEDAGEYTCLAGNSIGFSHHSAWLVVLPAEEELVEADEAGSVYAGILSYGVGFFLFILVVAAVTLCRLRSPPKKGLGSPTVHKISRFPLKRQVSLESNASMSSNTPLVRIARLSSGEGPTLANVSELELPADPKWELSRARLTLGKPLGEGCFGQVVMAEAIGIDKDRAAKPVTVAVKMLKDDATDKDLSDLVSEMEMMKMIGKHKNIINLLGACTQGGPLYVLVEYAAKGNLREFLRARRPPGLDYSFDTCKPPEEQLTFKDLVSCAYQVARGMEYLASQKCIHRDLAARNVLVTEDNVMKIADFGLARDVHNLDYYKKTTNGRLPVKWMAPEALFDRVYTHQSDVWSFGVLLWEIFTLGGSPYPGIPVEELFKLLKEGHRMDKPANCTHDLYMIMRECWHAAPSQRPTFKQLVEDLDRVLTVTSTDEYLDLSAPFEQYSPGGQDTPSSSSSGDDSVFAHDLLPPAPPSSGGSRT
Outline: as §1

GSK3B = target: T5, GSK3B (Homo sapiens, UniProt P49841); test: Liability panel screening by DSF: GSK3B; assay type: binding; settings: read-out: Mean ΔTM GSK3B
T5 construct: made in house
T5 sequence (P49841 whole entry, species assumed): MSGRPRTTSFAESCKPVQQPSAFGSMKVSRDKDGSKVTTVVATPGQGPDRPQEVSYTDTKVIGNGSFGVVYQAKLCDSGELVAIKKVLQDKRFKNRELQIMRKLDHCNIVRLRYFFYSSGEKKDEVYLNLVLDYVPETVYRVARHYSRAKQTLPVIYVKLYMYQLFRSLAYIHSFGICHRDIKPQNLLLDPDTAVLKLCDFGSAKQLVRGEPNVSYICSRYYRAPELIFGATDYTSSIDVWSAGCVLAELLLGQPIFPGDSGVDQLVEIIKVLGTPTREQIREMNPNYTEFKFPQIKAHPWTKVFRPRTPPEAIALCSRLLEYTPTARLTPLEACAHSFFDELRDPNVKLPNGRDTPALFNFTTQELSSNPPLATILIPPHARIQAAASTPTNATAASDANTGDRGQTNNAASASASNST

BRD4 = target: T6, BRD4 (Homo sapiens, UniProt O60885); test: Liability panel screening by DSF: BRD4; assay type: binding; settings: read-out: Mean ΔTM BRD4
T6 construct: This panel comprised ten highly ligandable kinases and bromodomains; made in house
Outline: as §1

BRPF1 = target: T7, BRPF1 (Homo sapiens, UniProt P55201); test: Liability panel screening by DSF: BRPF1; assay type: binding; settings: read-out: Mean ΔTM BRPF1
T7 construct: This panel comprised ten highly ligandable kinases and bromodomains; made in house
T7 sequence (P55201 628-732 limits assumed): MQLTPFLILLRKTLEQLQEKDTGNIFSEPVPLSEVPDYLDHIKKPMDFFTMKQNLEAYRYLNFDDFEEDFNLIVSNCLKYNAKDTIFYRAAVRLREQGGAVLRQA
Outline: as §1

CSNK1D = target: T8, CSNK1D (Homo sapiens, UniProt P48730); test: Liability panel screening by DSF: CSNK1D; assay type: binding; settings: read-out: Mean ΔTM CSNK1D
T8 construct: made in house
T8 sequence (P48730 whole entry, species assumed): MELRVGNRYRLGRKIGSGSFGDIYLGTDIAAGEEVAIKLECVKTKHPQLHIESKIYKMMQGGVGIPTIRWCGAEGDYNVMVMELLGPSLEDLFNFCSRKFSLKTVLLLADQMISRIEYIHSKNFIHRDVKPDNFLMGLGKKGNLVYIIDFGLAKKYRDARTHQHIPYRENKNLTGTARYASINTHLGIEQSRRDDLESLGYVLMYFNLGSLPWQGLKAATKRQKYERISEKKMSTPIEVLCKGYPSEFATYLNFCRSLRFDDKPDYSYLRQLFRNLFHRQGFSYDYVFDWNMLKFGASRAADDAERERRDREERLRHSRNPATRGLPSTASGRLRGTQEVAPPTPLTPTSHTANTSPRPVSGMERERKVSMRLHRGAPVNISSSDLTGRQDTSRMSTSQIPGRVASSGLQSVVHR
Outline: as §1

MAPK1 = target: T9, MAPK1 (Homo sapiens, UniProt P28482); test: Liability panel screening by DSF: MAPK1; assay type: binding; settings: read-out: Mean ΔTM MAPK1
T9 construct: made in house
T9 sequence (P28482 whole entry, species assumed): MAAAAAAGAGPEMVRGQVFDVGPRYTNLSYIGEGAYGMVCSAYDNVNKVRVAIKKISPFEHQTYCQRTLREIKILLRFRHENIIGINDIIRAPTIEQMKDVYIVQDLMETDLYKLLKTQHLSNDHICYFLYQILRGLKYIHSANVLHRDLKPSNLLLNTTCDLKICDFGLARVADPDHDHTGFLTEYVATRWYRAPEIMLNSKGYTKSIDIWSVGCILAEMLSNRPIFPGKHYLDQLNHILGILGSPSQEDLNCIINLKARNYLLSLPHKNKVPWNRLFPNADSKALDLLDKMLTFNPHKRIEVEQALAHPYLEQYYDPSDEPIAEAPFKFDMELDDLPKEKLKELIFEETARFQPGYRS
Outline: as §1

TRIM24 = target: T10, TRIM24 (Homo sapiens, UniProt O15164); test: Liability panel screening by DSF: TRIM24; assay type: binding; settings: read-out: Mean ΔTM TRIM24
T10 construct: This panel comprised ten highly ligandable kinases and bromodomains; made in house
T10 sequence (O15164 899-1004 limits assumed): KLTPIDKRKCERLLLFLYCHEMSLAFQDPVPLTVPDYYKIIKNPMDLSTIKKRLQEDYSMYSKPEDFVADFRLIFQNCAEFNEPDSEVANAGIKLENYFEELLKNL
Outline: as §1

[2] = system: NF-κB activity in HEK293 NF-κB reporter cells; test: NF-kB activity assay (GFP reporter, ionomycin/PMA); assay type: cell-based; settings: for Mean NFκB response: n=3; for NF-κB activity (inflammatory response to ionomycin/PMA): HEK293 NF-κB reporter cells, compounds at recommended concentrations, imaged over 24 h, n = 3
Outline: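 Reporter readout: GFP-expressing cells normalized to confluence, imaged every 90 min across 24 h after ionomycin (100 ng/mL)/PMA (10 ng/mL) stimulation of HEK293 cells pre-treated 4 h with compound (0.1% DMSO); triplicate independent experiments.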

[3] = system: ATF6 activity in Hela ATF6 reporter cells; test: Endoplasmic reticulum stress assay (ATF6 Renilla luciferase reporter, tunicamycin); assay type: cell-based; settings: for activity at 1 µM: Homo sapiens, HeLa, single replicates n=1 to n=5, read-out: ER stress [rel. ATF6 activity]
Outline: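 ER stress was induced by 100 ng/mL tunicamycin added 4 h after compound (0.1% DMSO) to HeLa ATF6 reporter cells. After 18 h more, Renilla luciferase signal was read and expressed relative to DMSO control, n=5 biological replicates.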

NR3A2 (ERβ) = settings: cited from earlier work; for IC50: (lit.), ref Supplementary Table 1, read-out: Potency [nM] IC50, NR3A2 (ERβ)
HEK293T cells [4] = test: Cytotoxicity: metabolic activity (WST-8 / CCK-8 assay); settings: 1 µM; HEK293T, 24 h; WST-8; normalized to 0.1% DMSO; single replicates
HEK293T cells [5] = test: Cytotoxicity: growth-rate (change in confluence over 24 h); settings: 1 µM, normalized to 0.1% DMSO control, single replicates (n=1...)
HEK293T cells [6] = test: Cytotoxicity: apoptosis induction (caspase-3/7 DEVD fluorogenic DNA dye); settings: 1 µM; HEK293T, 24 h; apoptotic cell count normalized to 0.1% DMSO; single replicates
NR3A1 (ERα) = settings: ERα remaining (degrader); ref Supplementary Table 1; cited from earlier work
[7] = known off-target outside the NR family at the recommended concentration; ref Supplementary Table 1 (superscript references); cited from earlier work

| Structure (SMILES) | Necrosis induction [NI] (HEK293T cells [1]) | Mean NFκB response ([2]; 1 µM, 1,5 h) | Mean NFκB response ([2]; 1 µM, 4,5 h) | Mean NFκB response ([2]; 1 µM, 7,5 h) | Mean NFκB response ([2]; 1 µM, 10,5 h) | Mean NFκB response ([2]; 1 µM, 13,5 h) | Mean NFκB response ([2]; 1 µM, 16,6 h) | Mean NFκB response ([2]; 1 µM, 19,5 h) | Mean NFκB response ([2]; 1 µM, 22,5 h) | Mean NFκB response ([2]; 1 µM, 3 h) | Mean NFκB response ([2]; 1 µM, 6 h) | Mean NFκB response ([2]; 1 µM, 9 h) | Mean NFκB response ([2]; 1 µM, 12 h) | Mean NFκB response ([2]; 1 µM, 15 h) | Mean NFκB response ([2]; 1 µM, 18 h) | Mean NFκB response ([2]; 1 µM, 21 h) | Mean NFκB response ([2]; 1 µM, 24 h) | NF-κB activity (inflammatory response to ionomycin/PMA) [2] | activity at 1 µM [3] [%] | IC50 (NR3A2 (ERβ)) [nM] | further results |
| --- | --- | --- | --- | --- | --- | --- | --- | --- | --- | --- | --- | --- | --- | --- | --- | --- | --- | --- | --- | --- | --- |
| CC[C@@H]1Cc2cc(O)ccc2C2=C1c1ccc(O)cc1C[C@H]2CC [(R,R)-THC] | 1.00 and 0.96 and 0.79 and 1.43 | 3557.96 GFP+-cells/confluence ∙ 1000 | 4261.58 GFP+-cells/confluence ∙ 1000 | 9104.56 GFP+-cells/confluence ∙ 1000 | 19176.29 GFP+-cells/confluence ∙ 1000 | 27638.90 GFP+-cells/confluence ∙ 1000 | 33810.34 GFP+-cells/confluence ∙ 1000 | 37834.35 GFP+-cells/confluence ∙ 1000 | 40864.97 GFP+-cells/confluence ∙ 1000 | 3459.65 GFP+-cells/confluence ∙ 1000 | 5471.05 GFP+-cells/confluence ∙ 1000 | 14572.22 GFP+-cells/confluence ∙ 1000 | 23454.30 GFP+-cells/confluence ∙ 1000 | 30888.37 GFP+-cells/confluence ∙ 1000 | 35947.21 GFP+-cells/confluence ∙ 1000 | 39332.93 GFP+-cells/confluence ∙ 1000 | 42047.68 GFP+-cells/confluence ∙ 1000 | no impact on NF-κB activity | 66 | ~4 | ΔTm at 20 µM (ABL1): 5.33 °C; ΔTm at 20 µM (AURKA): 1.62 °C; ΔTm at 20 µM (CDK2): 1.76 °C; ΔTm at 20 µM (FGFR3): 0.08 °C; ΔTm at 20 µM (GSK3B): 1.59 °C; ΔTm at 20 µM (BRD4): -3.36 °C; ΔTm at 20 µM (BRPF1): -0.77 °C; ΔTm at 20 µM (CSNK1D): -0.65 °C; ΔTm at 20 µM (MAPK1): 0.61 °C; ΔTm at 20 µM (TRIM24): 0.93 °C; ATF6 activity (tunicamycin-induced endoplasmic reticulum stress) ([3]; Hela ATF6 reporter cells, tunicamycin 100 ng/mL, 18 h, compounds at recommended concentrations, n = 5): mediated resolution of the tunicamycin-induced endoplasmic reticulum stress; rel. activity from literature, NR3A2 (ERβ): RBA to estradiol (NR3A2 (ERβ); relative binding affinity to estradiol): 25 ± 6 RBA; Metabolic activity [MA] (HEK293T cells [4]): 1.06 and 1.04 (2×) and 0.92 and 1.05 (2×) and 0.98 and 0.82; Growth rate [GR] (HEK293T cells [5]): 1.15 and 0.31 and 1.59 and 1.75 and 1.08 and 0.52 and 0.68 and 0.76 and 0.64 and 0.98; Apoptosis induction [AI] (HEK293T cells [6]): -0.98 and -0.31 and -0.46 and 0.85 and 0.74 and 1.53 |
| C[C@]12CC[C@@H]3c4ccc(O)cc4C[C@@H](CCCCCCCCC[S+]([O-])CCCC(F)(F)C(F)(F)F)[C@H]3[C@@H]1CC[C@@H]2O (stereo partly shown) [Fulvestrant] | 0.62 and 0.70 and 0.56 and 0.98 | 2679.37 GFP+-cells/confluence ∙ 1000 | 3148.36 GFP+-cells/confluence ∙ 1000 | 4671.22 GFP+-cells/confluence ∙ 1000 | 6295.62 GFP+-cells/confluence ∙ 1000 | 7325.42 GFP+-cells/confluence ∙ 1000 | 8293.33 GFP+-cells/confluence ∙ 1000 | 8696.67 GFP+-cells/confluence ∙ 1000 | 9540.00 GFP+-cells/confluence ∙ 1000 | 2744.06 GFP+-cells/confluence ∙ 1000 | 3642.03 GFP+-cells/confluence ∙ 1000 | 5613.40 GFP+-cells/confluence ∙ 1000 | 7011.92 GFP+-cells/confluence ∙ 1000 | 8097.95 GFP+-cells/confluence ∙ 1000 | 8436.67 GFP+-cells/confluence ∙ 1000 | 9413.33 GFP+-cells/confluence ∙ 1000 | 10080.00 GFP+-cells/confluence ∙ 1000 | reducing the inflammatory response | 89 | 4 | ΔTm at 20 µM (ABL1; DSF, 20 µM, n=2): -4.09 °C; ΔTm at 20 µM (AURKA; DSF, 20 µM, n=2): -0.16 °C; ΔTm at 20 µM (CDK2; DSF, 20 µM, n=2): 0 °C; ΔTm at 20 µM (FGFR3; DSF, 20 µM, n=2): -3.24 °C; ΔTm at 20 µM (GSK3B; DSF, 20 µM, n=2): 0.72 °C; ΔTm at 20 µM (BRD4; DSF, 20 µM, n=2): -2.93 °C; ΔTm at 20 µM (BRPF1; DSF, 20 µM, n=2): 0 °C; ΔTm at 20 µM (CSNK1D; DSF, 20 µM, n=2): -4.77 °C; ΔTm at 20 µM (MAPK1; DSF, 20 µM, n=2): -12 °C; rel. activity from literature, NR3A1 (ERα): % ERα remaining (NR3A1 (ERα)): 18%; rel. activity from literature, NR3A2 (ERβ): % rem. act. of estradiol (NR3A2 (ERβ); rem. act. of estradiol): 9%; Other off-target at recom. conc. [7]: sEH; Metabolic activity [MA] (HEK293T cells [4]): 0.95 (2×) and 1.00 and 1.04 and 1.03 and 0.99 and 1.20 (2×); Growth rate [GR] (HEK293T cells [5]): 0.67 and 2.29 and 0.97 and 0.95 and 0.64 and 0.78 and 0.76 and 0.84 and 1.55 and 3.07; Apoptosis induction [AI] (HEK293T cells [6]): 0.62 (2×) and 0.98 and 0.59 and 0.64 and 0.41 |
